According to patent publication EP0370656A1, “Treatment of myelosuppression associated with acquired immune deficiency” (SCHERING CORPORATION, priority 1988, dated 1990):
Where two headings read alike, the source gives them in different places.

How the values were obtained:
[1] = system: white blood cell (WBC) count; details: for WBC (per cm³): GM-CSF 0 µg/kg
Text: A person was diagnosed as having AIDS and CMV retinitis. […]

[2] = system: cytomegalovirus retinitis; details: intravenous, 7.5 to 15 mg per kilogram per day; patients with cytomegalovirus retinitis; cited from earlier work

## Nc1nc(O)c2ncn(COC(CO)CO)c2n1 [DHPG, 9-(1,3-dihydroxy-2-propoxymethyl) guanine]
[1]; Example 1, person, Day 0, % dose of DHPG changed to 50
  WBC (per cm³): 1000 per cm³
[1]; Example 1, DHPG commenced at Day 0
  result of DHPG treatment (adverse effect): life threatening myelosuppression
[1]; Example 1, Day 29, % dose of DHPG changed to 50
  WBC (per cm³): 700 per cm³
[1]; Example 1, Day 34, % dose of DHPG changed to 0
  WBC (per cm³): 300 per cm³
[1]; Example 1, Day 49 (DHPG at 0 % since Day 34), % dose of DHPG changed to 100
  WBC (per cm³): 1900 per cm³
[1]; Example 1, Day 52, % dose of DHPG changed to 50
  WBC (per cm³): 700 per cm³
[2]
  major adverse effect of DHPG therapy: dose related myelosuppression, especially neutropenia
